The conditions of series [1]: cited from earlier work.
Series [2] in a line: Maximum lopinavir concentration in suspension after thermal treatment (LC-MS/MS). Format: physicochemical. The settings on record: after thermal treatment (melt-quench), normalized to lopinavir content. How it is done:
Lopinavir in suspension was measured in μg/mL.

On to `Nc1ccn([C@@H]2CS[C@H](CO)O2)c(=O)n1` [Lamivudine, lamivudine], for which the Log D (in general, lipophilicity at a set pH, counting ionised and neutral species) in series [1] is recorded as −1.1.

For the compound `Cc1cccc(C)c1OCC(=O)N[C@@H](Cc1ccccc1)[C@@H](O)C[C@H](Cc1ccccc1)NC(=O)[C@H](C(C)C)N1CCCNC1=O` [Lopinavir (amorphous), lopinavir], in series [2], the “Maximum drug concentration in suspension” value stood at 322.00 µg/mL.

Take `Cc1cccc(C)c1OCC(=O)N[C@@H](Cc1ccccc1)[C@@H](O)C[C@H](Cc1ccccc1)NC(=O)[C@H](C(C)C)N1CCCNC1=O` [Lopinavir, lopinavir]: in series [1], the “Log D” value is given as 4.6.

With `CC(C)c1nc(CN(C)C(=O)N[C@H](C(=O)N[C@@H](Cc2ccccc2)C[C@H](O)[C@H](Cc2ccccc2)NC(=O)OCc2cncs2)C(C)C)cs1` [Ritonavir, ritonavir], the “Log D” value in series [1] was 5.7.

The record behind these values is patent US20190328667A1, “DRUG-POLYMER PARTICLES WITH SUSTAINED RELEASE PROPERTIES” (University of Washington, priority 2016, published 2019).
